# Measured values: US20240076347A1, “METHODS FOR PREVENTING FUNGAL INFECTIONS” (Cidara Therapeutics, Inc., priority 2016, published 2024)
# Where “and” joins values, the source holds several entries; their conditions need not be identical. Equal entries are not always repeated. Where two headings read alike, the source gives them in different places. Numbered stars: 1 amine (or outer) side, 2 acyl side, 3 side chain; on linkers, the order of the positions; unused ones are H or OH. Bridge positions count the residues as written; N and C are the ends. Square brackets hold non-standard residues; d marks the D form. Peptide text beside a SMILES is read from it. * marks the point of attachment. ξ: configuration not given here. Orn(4R-OH,5R-OCH2CH2NMe3+) = C[N+](C)(C)CCO[C@@H](N[*:3])[C@H](O)C[C@H](N[*:1])C(=O)[*:2]; pTerphenylCO(4''-OnC5H11) = CCCCCOc1ccc(-c2ccc(-c3ccc(C(=O)*)cc3)cc2)cc1; hTyr(3S-OH,4S-OH) = N[C@H](C(=O)O)[C@H](O)[C@@H](O)c1ccc(O)cc1; X1 = C[C@H]1CN([*:1])C(C(=O)[*:2])C1O; Hyp = O=C(O)[C@@H]1C[C@@H](O)CN1; ξT = CC(O)C(N)C(=O)O
# Columns and labels:
# [1] = Plasma and lung epithelial lining fluid (ELF) pharmacokinetics in ICR mice; format: in vivo; settings: 20 mg/kg IP; for Kp: ip, 20 mg/kg
# Protocol: At pre-dose, 1, 3, 6, 12, 24, 48, and 72 hours post-dose, 3 mice/timepoint were anesthetized/euthanized for blood collection (plasma) and bronchoalveolar lavage fluid (BALF) collection with 2×0.5 mL flushes of saline. Urea levels for plasma/BALF normalization for the volume of lung epithelial lining fluid (ELF) calculation were quantified using a commercially-available spectrophotometry-based assay. CD101 concentrations in plasma/BALF samples were measured by LC with electrospray ionization tandem mass spectrometric (LC-MS/MS) detection.
# Urea for plasma/BALF normalization for ELF volume were quantified using spectrophotometry. CD101 concentrations in plasma/BALF samples were measured by LC-MS/MS. Total plasma concentrations were corrected for protein binding (99.2%).
# [2] = Single-dose plasma pharmacokinetics in mice, IP; format: in vivo; settings: IP doses of 1, 4, 16 and 64 mg/kg; for half-life: read-out: elimination half-life, range
# Protocol: Pharmacokinetics. […] Plasma from groups of three mice per time point (1, 3, 6, 12, 24, 48, and 72-h) was collected. The plasma drug concentrations were determined by liquid chromatography-tandem mass spectrometry. A noncompartmental model was used in the pharmacokinetic analysis. Elimination half-life was calculated by nonlinear least-squares technique. The area under the concentration-time curve (AUC) was calculated by the trapezoidal rule. Pharmacokinetic exposures for doses not directly measured in the PK study were estimated by linear extrapolation for higher and lower dose levels and by interpolation for dose levels within the dose range studied given the linear PK results. Protein binding was 99.2%.
# [3] = Previous toxicology studies by the IV route; format: in vivo, cynomolgus monkeys; settings: up to at least 30 mg/kg
# Pneumocystis murina = Pneumocystis murina mouse prophylaxis study, lung nuclei and asci counts; format: in vivo
# Protocol: C3H/HeN mice (Charles River) were infected with P. murina by intranasal inoculation of P. murina organisms at 2×10^6/50 μl from a liquid nitrogen repository. Prior to inoculation, the P. murina were pre-incubated overnight in RPMI 1640 medium supplemented with calf serum and antibiotics to eliminate any bacterial contamination. The immune systems of the mice were suppressed by the addition of dexamethasone at 4 μ[…] to acidified drinking water (sulfuric acid at 1 ml/liter). Acidification is used to prevent secondary microbial infections. The mice were divided into a negative control group (control steroid-C/S), positive control group (trimethoprim/sulfamethoxazole-TMP/SMX) and treatment groups. Drugs to be tested were administered intraperitoneally (IP) on a mg/kg/d basis; dose, route, and frequency of administration varied depending on the agent being tested. […] Immune suppression and treatment continued for the entire 6 week study. At that time, the mice were euthanized by CO2 and lungs processed for analysis by homogenization. Slides were made from the lung homogenates at different dilutions and stained with Diff-Quik to quantify the trophic forms and cresyl echt violet to quantify the asci. Efficacy is based on the reduction of organism burden between the treatment groups and the negative control group was determined by microscopic evaluation. The nuclei and asci counts for each lung were log transformed and statistical analysis was determined by the analysis of variance (ANOVA); individual groups were compared by the Student-Newman-Keuls t test for multiple comparisons using GraphPad Prism.
# [4] = test system: Candida albicans clinical isolates; settings: SENTRY surveillance (Pfaller, et al 2017); cited from earlier work
structure (smiles),measurement,setting,value
"CCCCCOc1ccc(-c2ccc(-c3ccc(C(=O)N[C@H]4C[C@@H](O)[C@@H](OCC[N+](C)(C)C)NC(=O)C5C(O)[C@@H](C)CN5C(=O)[C@H]([C@@H](C)O)NC(=O)[C@H]([C@H](O)[C@@H](O)c5ccc(O)cc5)NC(=O)[C@@H]5C[C@@H](O)CN5C(=O)C(C(C)O)NC4=O)cc3)cc2)cc1 (stereo partly drawn) [CD101] ({pTerphenylCO(4''-OnC5H11)}-[Orn(4R-OH,5R-OCH2CH2NMe3+)][ξT][Hyp][hTyr(3S-OH,4S-OH)]T[X1]; lactam 1-C)",mean maximum ELF concentration,[1],15.1 µg/mL
same,mean maximum plasma concentration,[1],30.1 µg/mL
same,time of maximum ELF concentration,[1],6 h and 4 h
same,time of maximum plasma concentration,[1]; first collection timepoint,1 h
same,concentration at 72 h,"[1]; ICR, mouse, lung epithelial lining fluid (ELF), intraperitoneal, at 72 h",4000 ng/mL
same,Kp,"[1]; ICR, mouse, lung epithelial lining fluid (ELF), free-drug (protein binding 99.2%), read-out: ELF/Plasma AUC ratio",100
same,Kp,"[1]; ICR, mouse, lung epithelial lining fluid (ELF), read-out: AUC exposure ratios of ELF/plasma",0.8 to 0.95
same,Kp,"[1]; ICR, mouse, lung epithelial lining fluid (ELF), total-drug, read-out: ELF/Plasma AUC ratio",0.8
same,half-life,"[1]; ICR, mouse, lung epithelial lining fluid (ELF), read-out: ELF half-life (converted)",31.9 h
same,AUC(0-t),"[1]; ICR, mouse, lung epithelial lining fluid (ELF), read-out: mean ELF AUC0-72",606 µg·h/mL
same,AUC(0-inf),"[1]; ICR, mouse, lung epithelial lining fluid (ELF), read-out: mean ELF AUCinf",802 µg·h/mL
same,AUC(0-t),"[1]; ICR, mouse, plasma, read-out: mean plasma AUC0-72",762 µg·h/mL
same,AUC(0-inf),"[1]; ICR, mouse, plasma, read-out: mean plasma AUCinf",848 µg·h/mL
same,half-life,"[1]; ICR, mouse, plasma, read-out: plasma half-life (converted)",21.1 h
same,AUC,"[2]; ICR Swiss/CD1, mouse, read-out: AUC0-, range",93.2 to 40500 µg·h/mL
same,Cmax,"[2]; ICR Swiss/CD1, mouse, read-out: Peak (Cmax) levels, range",2600 to 76700 ng/mL
same,half-life,"[2]; ICR Swiss/CD1, mouse",28 to 41 h
same,half-life,[2]; mouse,29 to 41 h
same,safety and tolerability,[3],safe and well tolerated
same,asci levels (lung),Pneumocystis murina; 5 CD101 treatment groups vs positive control TMP/SMX,no difference in efficacy
same,asci levels (lung),"Pneumocystis murina; IP, all CD101 treatment groups, 6 weeks, vs negative control",statistically significant reduction in asci levels
same,nuclei levels (lung),"Pneumocystis murina; IP, all dose levels except 0.2 mg/kg/1×/week, 6 weeks, vs negative control",statistically significant reduction in nuclei levels
same,human equivalent doses preventing Pneumocystis pneumonia in mice,Pneumocystis murina; mice,< 50 mg
same,nuclei levels (lung),"Pneumocystis murina; three of the CD101 treatment groups, 6 weeks",equally as efficacious as the positive control TMP/SMX
same,MIC90,[4],0.06 µg/mL
